ChEMBL document CHEMBL3045059, “Efficacy of ketoenols on insecticide resistant field populations of two-spotted spider mite Tetranychus urticae and sweet potato whitefly Bemisia tabaci from Greece” (2012)
In brackets after ≈: the same amount, converted by molar mass.

Assays:
Type in all cases: functional
Bemisia tabaci [1] = assay: Acaricidal activity against second-instar nymph stage of Bemisia tabaci (sweet potato whitefly) field population GR163 in cotton leaves assessed as mortality incubated for 5 secs measured after 10 to 12 days
Bemisia tabaci [2] = assay: Resistance ratio, ratio of imidacloprid LC50 to compound LC50 for second-instar nymph stage of Bemisia tabaci (sweet potato whitefly) field population GR259
Bemisia tabaci [3] = assay: Resistance ratio, ratio of alpha-cypermethrin LC50 to compound LC50 for second-instar nymph stage of Bemisia tabaci (sweet potato whitefly) greenhouse population GR165
Bemisia tabaci [4] = assay: Resistance ratio, ratio of imidacloprid LC50 to compound LC50 for second-instar nymph stage of Bemisia tabaci (sweet potato whitefly) greenhouse population GR164
Bemisia tabaci [5] = assay: Resistance ratio, ratio of alpha-cypermethrin LC50 to compound LC50 for second-instar nymph stage of Bemisia tabaci (sweet potato whitefly) field population GR163
Bemisia tabaci [6] = assay: Resistance ratio, ratio of imidacloprid LC50 to compound LC50 for second-instar nymph stage of Bemisia tabaci (sweet potato whitefly) greenhouse population GR187
Bemisia tabaci [7] = assay: Resistance ratio, ratio of alpha-cypermethrin LC50 to compound LC50 for second-instar nymph stage of Bemisia tabaci (sweet potato whitefly) greenhouse population GR164
Bemisia tabaci [8] = assay: Resistance ratio, ratio of alpha-cypermethrin LC50 to compound LC50 for second-instar nymph stage of Bemisia tabaci (sweet potato whitefly) greenhouse population GR192
Bemisia tabaci [9] = assay: Resistance ratio, ratio of alpha-cypermethrin LC50 to compound LC50 for second-instar nymph stage of Bemisia tabaci (sweet potato whitefly) greenhouse population GR188
Bemisia tabaci [10] = assay: Acaricidal activity against second-instar nymph stage of Bemisia tabaci (sweet potato whitefly) greenhouse population GR165 in cotton leaves assessed as mortality incubated for 5 secs measured after 10 to 12 days
Bemisia tabaci [11] = assay: Resistance ratio, ratio of alpha-cypermethrin LC50 to compound LC50 for second-instar nymph stage of Bemisia tabaci (sweet potato whitefly) greenhouse population GR187
Bemisia tabaci [12] = assay: Resistance ratio, ratio of alpha-cypermethrin LC50 to compound LC50 for second-instar nymph stage of Bemisia tabaci (sweet potato whitefly) greenhouse population GR258
Bemisia tabaci [13] = assay: Acaricidal activity against second-instar nymph stage of Bemisia tabaci (sweet potato whitefly) field population GR157 in cotton leaves assessed as mortality incubated for 5 secs measured after 10 to 12 days
Bemisia tabaci [14] = assay: Acaricidal activity against second-instar nymph stage of Bemisia tabaci (sweet potato whitefly) greenhouse population GR192 in cotton leaves assessed as mortality incubated for 5 secs measured after 10 to 12 days
Bemisia tabaci [15] = assay: Acaricidal activity against second-instar nymph stage of Bemisia tabaci (sweet potato whitefly) greenhouse population GR164 in cotton leaves assessed as survival of the parent population at 30 mg/l incubated for 5 secs measured after 10 to 12 days by applying constant selection pressure under laboratory conditions
Bemisia tabaci [16] = assay: Resistance ratio, ratio of imidacloprid LC50 to compound LC50 for second-instar nymph stage of Bemisia tabaci (sweet potato whitefly) greenhouse population GR165
Bemisia tabaci [17] = assay: Acaricidal activity against second-instar nymph stage of Bemisia tabaci (sweet potato whitefly) greenhouse population GR187 in cotton leaves assessed as mortality incubated for 5 secs measured after 10 to 12 days
Bemisia tabaci [18] = assay: Resistance ratio, ratio of imidacloprid LC50 to compound LC50 for second-instar nymph stage of Bemisia tabaci (sweet potato whitefly) greenhouse population GR191
Bemisia tabaci [19] = assay: Resistance ratio, ratio of alpha-cypermethrin LC50 to compound LC50 for second-instar nymph stage of Bemisia tabaci (sweet potato whitefly) greenhouse population GR191
Bemisia tabaci [20] = assay: Resistance ratio, ratio of alpha-cypermethrin LC50 to compound LC50 for second-instar nymph stage of Bemisia tabaci (sweet potato whitefly) laboratory strain GRMAL-RP
Bemisia tabaci [21] = assay: Resistance ratio, ratio of alpha-cypermethrin LC50 to compound LC50 for second-instar nymph stage of Bemisia tabaci (sweet potato whitefly) greenhouse population GR194
Bemisia tabaci [22] = assay: Acaricidal activity against second-instar nymph stage of Bemisia tabaci (sweet potato whitefly) greenhouse population GR164 in cotton leaves assessed as survival at 30 mg/l at the last selection cycle of four generations incubated for 5 secs measured after 10 to 12 days by applying constant selection pressure under laboratory conditions
Bemisia tabaci [23] = assay: Acaricidal activity against second-instar nymph stage of Bemisia tabaci (sweet potato whitefly) laboratory strain GRMAL-RN in cotton leaves assessed as mortality incubated for 5 secs measured after 10 to 12 days
Bemisia tabaci [24] = assay: Acaricidal activity against second-instar nymph stage of Bemisia tabaci (sweet potato whitefly) field population GR259 in cotton leaves assessed as mortality incubated for 5 secs measured after 10 to 12 days
Bemisia tabaci [25] = assay: Resistance ratio, ratio of imidacloprid LC50 to compound LC50 for second-instar nymph stage of Bemisia tabaci (sweet potato whitefly) greenhouse population GR192
Bemisia tabaci [26] = assay: Acaricidal activity against second-instar nymph stage of Bemisia tabaci (sweet potato whitefly) laboratory strain GRMAL-RP in cotton leaves assessed as mortality incubated for 5 secs measured after 10 to 12 days
Bemisia tabaci [27] = assay: Resistance ratio, ratio of imidacloprid LC50 to compound LC50 for second-instar nymph stage of Bemisia tabaci (sweet potato whitefly) laboratory strain GRMAL-RN
Bemisia tabaci [28] = assay: Acaricidal activity against second-instar nymph stage of Bemisia tabaci (sweet potato whitefly) greenhouse population GR188 in cotton leaves assessed as mortality incubated for 5 secs measured after 10 to 12 days
Bemisia tabaci [29] = assay: Resistance ratio, ratio of imidacloprid LC50 to compound LC50 for second-instar nymph stage of Bemisia tabaci (sweet potato whitefly) greenhouse population GR188
Bemisia tabaci [30] = assay: Acaricidal activity against second-instar nymph stage of Bemisia tabaci (sweet potato whitefly) greenhouse population GR194 in cotton leaves assessed as mortality incubated for 5 secs measured after 10 to 12 days
Bemisia tabaci [31] = assay: Acaricidal activity against second-instar nymph stage of Bemisia tabaci (sweet potato whitefly) greenhouse population GR191 in cotton leaves assessed as mortality incubated for 5 secs measured after 10 to 12 days
Bemisia tabaci [32] = assay: Acaricidal activity against second-instar nymph stage of Bemisia tabaci (sweet potato whitefly) greenhouse population GR164 in cotton leaves assessed as mortality incubated for 5 secs measured after 10 to 12 days
Bemisia tabaci [33] = assay: Resistance ratio, ratio of alpha-cypermethrin LC50 to compound LC50 for second-instar nymph stage of Bemisia tabaci (sweet potato whitefly) field population GR157
Bemisia tabaci [34] = assay: Resistance ratio, ratio of imidacloprid LC50 to compound LC50 for second-instar nymph stage of Bemisia tabaci (sweet potato whitefly) greenhouse population GR194
Bemisia tabaci [35] = assay: Resistance ratio, ratio of imidacloprid LC50 to compound LC50 for second-instar nymph stage of Bemisia tabaci (sweet potato whitefly) field population GR163
Bemisia tabaci [36] = assay: Acaricidal activity against second-instar nymph stage of Bemisia tabaci (sweet potato whitefly) greenhouse population GR258 in cotton leaves assessed as mortality incubated for 5 secs measured after 10 to 12 days
Bemisia tabaci [37] = assay: Resistance ratio, ratio of alpha-cypermethrin LC50 to compound LC50 for second-instar nymph stage of Bemisia tabaci (sweet potato whitefly) field population GR259
Bemisia tabaci [38] = assay: Resistance ratio, ratio of imidacloprid LC50 to compound LC50 for second-instar nymph stage of Bemisia tabaci (sweet potato whitefly) greenhouse population GR258
Bemisia tabaci [39] = assay: Resistance ratio, ratio of imidacloprid LC50 to compound LC50 for second-instar nymph stage of Bemisia tabaci (sweet potato whitefly) field population GR157

Question: Which results are given for `Cc1cc(C)c(C2=C(OC(=O)CC(C)(C)C)C3(CCCC3)OC2=O)c(C)c1` [SPIROMESIFEN]?
Answer: LC95 (Bemisia tabaci [1]): 85.08 µg/mL (≈ 230 µM); LC50 (Bemisia tabaci [1]; Bemisia tabaci, GR163, Nymph stage): 11.6 µg/mL (≈ 31.3 µM); RatioLC50 (Bemisia tabaci [2]): 323; RatioLC50 (Bemisia tabaci [3]): 256; RatioLC50 (Bemisia tabaci [4]): 7; RatioLC50 (Bemisia tabaci [5]): 478; RatioLC50 (Bemisia tabaci [6]): 94; RatioLC50 (Bemisia tabaci [7]): 42; RatioLC50 (Bemisia tabaci [8]): 179; RatioLC50 (Bemisia tabaci [9]): 105; LC95 (Bemisia tabaci [10]): 37.16 µg/mL (≈ 100 µM); LC50 (Bemisia tabaci [10]; Bemisia tabaci, GR165, Nymph stage): 4.5 µg/mL (≈ 12.1 µM); RatioLC50 (Bemisia tabaci [11]): 101; RatioLC50 (Bemisia tabaci [12]): 1190; LC95 (Bemisia tabaci [13]): 139.9 µg/mL (≈ 378 µM); LC50 (Bemisia tabaci [13]; Bemisia tabaci, GR157, Nymph stage): 5.4 µg/mL (≈ 14.6 µM); LC95 (Bemisia tabaci [14]): 44.79 µg/mL (≈ 121 µM); LC50 (Bemisia tabaci [14]; Bemisia tabaci, GR192, Nymph stage): 14 µg/mL (≈ 37.8 µM); survival at 30 µg/mL (Bemisia tabaci [15]): 27%; RatioLC50 (Bemisia tabaci [16]): 73; LC95 (Bemisia tabaci [17]): 24.95 µg/mL (≈ 67.3 µM); LC50 (Bemisia tabaci [17]; Bemisia tabaci, GR187, Nymph stage): 4.6 µg/mL (≈ 12.4 µM); RatioLC50 (Bemisia tabaci [18]): 120; RatioLC50 (Bemisia tabaci [19]): 179; RatioLC50 (Bemisia tabaci [20]): >621; RatioLC50 (Bemisia tabaci [21]): 142; survival at 30 µg/mL (Bemisia tabaci [22]): 13%; LC95 (Bemisia tabaci [23]): 47.61 µg/mL (≈ 129 µM); LC50 (Bemisia tabaci [23]; Bemisia tabaci, GRMAL-RN, Nymph stage): 6.7 µg/mL (≈ 18.1 µM); LC95 (Bemisia tabaci [24]): 30.74 µg/mL (≈ 83 µM); LC50 (Bemisia tabaci [24]; Bemisia tabaci, GR259, Nymph stage): 7.9 µg/mL (≈ 21.3 µM); RatioLC50 (Bemisia tabaci [25]): 323; LC95 (Bemisia tabaci [26]): 50.31 µg/mL (≈ 136 µM); LC50 (Bemisia tabaci [26]; Bemisia tabaci, GRMAL-RP, Nymph stage): 1.1 µg/mL (≈ 2.97 µM); RatioLC50 (Bemisia tabaci [27]): 958; LC95 (Bemisia tabaci [28]): 21.41 µg/mL (≈ 57.8 µM); LC50 (Bemisia tabaci [28]; Bemisia tabaci, GR188, Nymph stage): 6.1 µg/mL (≈ 16.5 µM); RatioLC50 (Bemisia tabaci [29]): 353; LC95 (Bemisia tabaci [30]): 49.23 µg/mL (≈ 133 µM); LC50 (Bemisia tabaci [30]; Bemisia tabaci, GR194, Nymph stage): 6.4 µg/mL (≈ 17.3 µM); LC95 (Bemisia tabaci [31]): 18.62 µg/mL (≈ 50.3 µM); LC50 (Bemisia tabaci [31]; Bemisia tabaci, GR191, Nymph stage): 5.1 µg/mL (≈ 13.8 µM); LC95 (Bemisia tabaci [32]): 69.44 µg/mL (≈ 187 µM); LC50 (Bemisia tabaci [32]; Bemisia tabaci, GR164, Nymph stage): 12 µg/mL (≈ 32.4 µM); RatioLC50 (Bemisia tabaci [33]): 426; RatioLC50 (Bemisia tabaci [34]): 247; RatioLC50 (Bemisia tabaci [35]): 46; LC95 (Bemisia tabaci [36]): 49.19 µg/mL (≈ 133 µM); LC50 (Bemisia tabaci [36]; Bemisia tabaci, GR258, Nymph stage): 12 µg/mL (≈ 32.4 µM); RatioLC50 (Bemisia tabaci [37]): 741; RatioLC50 (Bemisia tabaci [38]): 369; RatioLC50 (Bemisia tabaci [39]): 88
